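The compound was tested at five concentrations on cells cultured in 96-well plates, with a 48-hour exposure period. Abbreviation: GI50, concentration required for 50% inhibition of growth.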 Activity calls are given as the source filed them. Rule as the data show it: active = GI50 up to about 1.1 µM and inactive = higher. Bounds are passed on as bounds.

Test systems include 786-0; A498; CAKI-1; CCRF-CEM; COLO 205; EKVX; HL-60; MOLT-4; NCI-H522; OVCAR-4; OVCAR-5; RXF 393; SK-MEL-5; TK-10; HCT-116; UACC-62; HCT-15.
Holding throughout (test): NCI tumour cell line growth inhibition, 48 h

Turning to `CC1=C(C(=O)Nc2c(C)cccc2C)C(c2ccccc2Cl)C(C(=O)Nc2c(C)cccc2C)=C(C)N1`, the GI50 in the assay with 786-0, with A498, in the assay with CAKI-1, in the assay with CCRF-CEM, with COLO 205 and in the assay with EKVX was > 100 µM (inactive) in each case. For the same molecule, the GI50 in the assay on HL-60, in the assay on MOLT-4, with NCI-H522, in the assay on OVCAR-4, with OVCAR-5 and in the assay with RXF 393 was > 100 µM (inactive) in each case. Further, the GI50 in the assay on SK-MEL-5 and with TK-10 was > 100 µM (inactive) each time.
As for `ClC(Cl)[Si]12OCCN(CCO1)CCO2`, the GI50 in the assay with 786-0, in the assay on A498, in the assay with CAKI-1, in the assay on CCRF-CEM, in the assay on COLO 205 and in the assay on HCT-116 was > 100 µM (inactive) each time. Besides, the GI50 in the assay on HL-60, in the assay with MOLT-4, with NCI-H522, with OVCAR-5, in the assay with RXF 393 and with SK-MEL-5 was > 100 µM (inactive) in each case. For the same molecule, the GI50 in the assay with TK-10 and in the assay on UACC-62 was > 100 µM (inactive) each time.
With `O=C(O)/C(=C/c1c(O)ccc2ccccc12)c1csc(-c2nc(/C(=C\c3c(O)ccc4ccccc34)C(=O)O)cs2)n1`, the GI50 was 13.5 µM (inactive) in the assay with 786-0; 20.7 µM (inactive) with A498; 10.7 µM (inactive) in the assay with CCRF-CEM; 16.4 µM (inactive) with COLO 205; 41.2 µM (inactive) in the assay on EKVX; 10.6 µM (inactive) in the assay on HCT-116. Moreover, the GI50 is 14.4 µM with HCT-15; 8.45 µM (inactive) in the assay with HL-60; 13.4 µM (inactive) in the assay with MOLT-4; 17.5 µM (inactive) in the assay on OVCAR-5; 3.21 µM (inactive) in the assay on RXF 393; 19.4 µM (inactive) with SK-MEL-5. Also, the GI50 in the assay with TK-10 was 29 µM (inactive); in the assay on UACC-62 it was 10.4 µM (inactive).
Consider `C(=N\CC/N=C/c1cccc2ccccc12)/c1cccc2ccccc12`, for which the GI50 in the assay with 786-0 was > 100 µM (inactive); in the assay on CAKI-1, > 100 µM (inactive); in the assay on COLO 205 it was > 100 µM (inactive); in the assay with EKVX it was > 100 µM (inactive); in the assay with HCT-116, > 100 µM (inactive); in the assay on HCT-15 it was above 100 µM. The GI50 in the assay on MOLT-4, with NCI-H522, in the assay on OVCAR-4, in the assay on OVCAR-5, in the assay on RXF 393 and with SK-MEL-5 was > 100 µM (inactive) in each case. In addition, the GI50 in the assay on TK-10 and with UACC-62 was > 100 µM (inactive) throughout.
For `C=CCCC1(C)CCCNC1=S` (stereo not given), the GI50 in the assay with A498 is > 100 µM (inactive); in the assay on CCRF-CEM it was 17.7 µM (inactive); in the assay with COLO 205 it was 37.7 µM (inactive); in the assay with EKVX it was > 100 µM (inactive); in the assay with HCT-116 it was > 100 µM (inactive); in the assay with HCT-15, above 100 µM. Also, the GI50 with HL-60, in the assay on MOLT-4, in the assay on OVCAR-4, in the assay on OVCAR-5, in the assay with RXF 393 and with SK-MEL-5 was > 100 µM (inactive) in each case. For the same molecule, the GI50 in the assay on TK-10 and with UACC-62 was > 100 µM (inactive) each time.
Consider `C=CCC1OC(C)(C)Oc2ccc(OCOCCOC)cc21` (stereo not given), for which the GI50 was > 100 µM (inactive) in the assay with 786-0; > 100 µM (inactive) in the assay on A498; > 100 µM (inactive) in the assay on CAKI-1; > 100 µM (inactive) with EKVX; > 100 µM (inactive) with HCT-116; above 100 µM with HCT-15. Also, the GI50 in the assay with MOLT-4, in the assay on OVCAR-4, in the assay on OVCAR-5, in the assay on RXF 393, in the assay with SK-MEL-5 and with TK-10 was > 100 µM (inactive) each time. The GI50 with UACC-62 is > 100 µM (inactive).
Turning to `Cc1cc2ncn(-c3nc4ccccc4nc3C(C#N)S(C)(=O)=O)c2cc1C` (stereo not given), the GI50 is > 100 µM (inactive) in the assay with 786-0; 19.7 µM (inactive) with A498; > 100 µM (inactive) in the assay with CAKI-1; > 100 µM (inactive) in the assay on CCRF-CEM; > 100 µM (inactive) in the assay on COLO 205; > 100 µM (inactive) with EKVX. In addition, the GI50 with HCT-116 is > 100 µM (inactive); in the assay with HCT-15, above 100 µM; in the assay on HL-60, > 100 µM (inactive); in the assay on MOLT-4, > 100 µM (inactive); in the assay with NCI-H522, > 100 µM (inactive); in the assay with OVCAR-4, > 100 µM (inactive). The GI50 in the assay with OVCAR-5, in the assay with SK-MEL-5, in the assay on TK-10 and in the assay on UACC-62 was > 100 µM (inactive) each time.
For `CCN(CC)CCCCC1CCN(CC(=O)N2c3cc(Cl)ccc3NC(=O)CC2C)CC1` (stereo not given), the GI50 in the assay on 786-0, in the assay with A498, in the assay with CAKI-1, in the assay with CCRF-CEM, with COLO 205 and in the assay on HCT-116 was > 100 µM (inactive) each time. Also, the GI50 in the assay on HCT-15 was above 100 µM; in the assay with HL-60, > 100 µM (inactive); with MOLT-4, > 100 µM (inactive); with OVCAR-4 it was > 100 µM (inactive); in the assay with OVCAR-5, > 100 µM (inactive); in the assay with SK-MEL-5, > 100 µM (inactive). The GI50 in the assay with UACC-62 was > 100 µM (inactive).
Regarding `O=C(c1ccco1)N(C(=S)N1CCN(c2ccccn2)CC1)c1ccccc1`, the GI50 in the assay on 786-0 was > 100 µM (inactive); with CAKI-1, > 100 µM (inactive); in the assay with CCRF-CEM, > 100 µM (inactive); in the assay with COLO 205, > 100 µM (inactive); in the assay on HCT-116, > 100 µM (inactive); with HCT-15, above 100 µM. Besides, the GI50 with HL-60, in the assay with MOLT-4, in the assay with NCI-H522, with OVCAR-4, in the assay on OVCAR-5 and with RXF 393 was > 100 µM (inactive) in each case. Further, the GI50 with SK-MEL-5, with TK-10 and in the assay with UACC-62 was > 100 µM (inactive) each time.
`NC1=NN(c2ccccc2)C(=O)C1C(=O)C(=O)Nc1ccccc1` (stereo not given): the GI50 in the assay with 786-0, in the assay with A498, in the assay with CAKI-1, in the assay on CCRF-CEM, in the assay on COLO 205 and in the assay on EKVX was > 100 µM (inactive) each time. Also, the GI50 in the assay on HCT-116 is > 100 µM (inactive); in the assay on HCT-15 it was above 100 µM; with HL-60 it was > 100 µM (inactive); in the assay on MOLT-4 it was > 100 µM (inactive); in the assay on NCI-H522 it was > 100 µM (inactive); in the assay with OVCAR-4, > 100 µM (inactive). The GI50 in the assay with OVCAR-5, in the assay with SK-MEL-5, in the assay on TK-10 and in the assay on UACC-62 was > 100 µM (inactive) in each case.
As to `CCOc1ccccc1NC(=O)C1=C(C)NC(C)=C(C(=O)Nc2ccccc2OCC)C1c1ccc([N+](=O)[O-])cc1`, the GI50 is > 100 µM (inactive) in the assay with 786-0; 78.9 µM (inactive) with A498; > 100 µM (inactive) in the assay with CAKI-1; 67.9 µM (inactive) with COLO 205; 54 µM (inactive) in the assay with EKVX; > 100 µM (inactive) with HCT-116. Also, the GI50 in the assay on HCT-15 was 75.3 µM; with HL-60, 34.7 µM (inactive); with NCI-H522, > 100 µM (inactive); in the assay with OVCAR-4, 68.9 µM (inactive); with OVCAR-5, > 100 µM (inactive); in the assay with RXF 393 it was > 100 µM (inactive). In addition, the GI50 in the assay on UACC-62 is 26.1 µM (inactive).
Turning to `CCCCNC(=O)C1C(=O)N(CCCC)C(=O)/C1=N\N` (stereo not given), the GI50 with 786-0, in the assay on A498, in the assay with CAKI-1, in the assay on COLO 205, in the assay with EKVX and with HCT-116 was > 100 µM (inactive) each time. The GI50 with HCT-15 is above 100 µM; with MOLT-4, > 100 µM (inactive); in the assay with NCI-H522, > 100 µM (inactive); in the assay on OVCAR-4, > 100 µM (inactive); with OVCAR-5, > 100 µM (inactive); in the assay with RXF 393 it was > 100 µM (inactive). The GI50 in the assay with SK-MEL-5, in the assay on TK-10 and with UACC-62 was > 100 µM (inactive) each time.
As to `O=C(Nc1cccc2c1[nH]c1c(-c3ccccc3)nccc12)c1ccccc1[N+](=O)[O-]`, the GI50 in the assay on A498 is 7.76 µM (inactive); in the assay with CAKI-1, 18.8 µM (inactive); in the assay on CCRF-CEM, 21.9 µM (inactive); in the assay with COLO 205 it was 26.2 µM (inactive); in the assay on EKVX it was 50.9 µM (inactive); with HCT-116, 26.4 µM (inactive). Also, the GI50 is 7.36 µM in the assay with HCT-15; 26.2 µM (inactive) with HL-60; 12.9 µM (inactive) in the assay on MOLT-4; 38.9 µM (inactive) in the assay with OVCAR-4; 18.6 µM (inactive) in the assay on OVCAR-5; 12.6 µM (inactive) in the assay with RXF 393. Moreover, the GI50 in the assay with TK-10 was 33 µM (inactive).
On to `COC(=O)C1(O)CC(=O)CCC1c1ccc(OC)cc1` (stereo not given), for which the GI50 in the assay with 786-0, with A498, in the assay on CAKI-1, in the assay with CCRF-CEM, in the assay with COLO 205 and with EKVX was > 100 µM (inactive) each time. Also, the GI50 was > 100 µM (inactive) in the assay on HCT-116; above 100 µM in the assay with HCT-15; > 100 µM (inactive) in the assay on HL-60; > 100 µM (inactive) with MOLT-4; > 100 µM (inactive) in the assay on NCI-H522; > 100 µM (inactive) with OVCAR-4. Further, the GI50 in the assay with OVCAR-5, in the assay with SK-MEL-5, in the assay on TK-10 and in the assay on UACC-62 was > 100 µM (inactive) throughout.

(Values after ChEMBL document CHEMBL1201862, “PubChem BioAssay data set” (2004).)
